pIC50: −log10 of the molar value. Read-outs that look alike come from different tables or passages of the source.
What was measured:
[1] = test system: NCI-H460; test: In vitro inhibition of human tumor cells, NCI-H460, MTT method; format: cell-based
Procedure: (§1) The cells were allowed to adhere overnight.
(§2) Adherent cells: Culture medium was aspirated and 100 μl/wells of basal culture (generally refers to medium without fetal bovine serum (FBS) and other additives) containing 0.5 mg/ml MTT were added. The cells were cultured for 3 hours. MTT-containing basal medium was aspirated and 100 μl/wells of DMSO were added to dissolve formazan.
(§3) Unstably adherent cells: Unstably adherent cells were directly added to the MTT solution to achieve the concentration of 0.5 mg/ml and cultured for 3 hours. The ternary solution in an equal volume to the system was added to the system to dissolve the formazan.
(§4) The DMSO concentration was 0.1%.

[2] = test system: BEL-7404; test: In vitro inhibition of human tumor cells, BEL-7404, SRB method
Procedure: (§6) 1.1.2 Cell culture method: Cells were cultured in complete medium, 37° C., 5% CO2, saturated humidity to log growth phase (adherent cells generally attended to complete fusion), and cells were collected for subsequent experiments (adherent cells were first digested with trypsin/ethylene diamine tetraacetic acid (EDTA) to remove adherent).
(§7) 1.1.3 96-well cell culture plates (hereinafter referred to as 96-well plates) were inoculated with a certain number of cells (see Table 1 for details). The cells were allowed to adhere overnight. […] Finally, the total amount of cell protein in the assay wells was determined by the SRB method, or the cell viability was determined by the MTT method:
(§8) The culture medium was aspirated from the wells and the cells were fixed for 1 hour or more by adding 10% trichloroacetic acid. Trichloroacetic acid was removed. The resultant was washed with H2O and stained with 0.4% SRB for 15 to 30 minutes. Excess SRB was removed. The resultant was washed with 1% acetic acid. The protein-bound SRB was dissolved by adding 10 mM of 100 μl Tris (trishydroxymethylaminomethane). Tests were carried out at the wavelength of 570 nm.
(§9) 1.1.4 dilution and addition of β-glucuronidase: 1 to 2 mg of β-glucuronidase was weighed and dissolved in PBS to give a 2 mg/ml of stock solution. […] 80 μl of enzyme working solution was added to the enzyme-containing assay wells. The amount of β-glucuronidase was 1 μg/wells. No enzyme-containing assay wells were added to the 80 μl of complete medium.
(§10) The assay wells were charged with 20 μl of 10× compound working solution. The final volume was 200 μl per well. The DMSO concentration was 0.1%.
(§11) 1.1.6 Compound inhibition activity calculation: The test included a compound test group, a compound-free positive solvent control group (PC) and a compound-free negative solvent control group (NC). […] The average inhibition rate and the standard deviation (SD) were obtained from the repeated test wells. The average inhibition rate was plotted on the basis of the compound concentration as an abscissa and distributed in the form of logarithms. The curve was fitted to the Logistic 4 parameter equation. […] The test was generally repeated to obtain 3 valid results.

[3] = test system: MDA-MB-468; test: In vitro inhibition of human tumor cells, MDA-MB-468, SRB method
Procedure: as §6, §7, §8, §9, §10, §11

[4] = test system: LoVo; test: In vitro inhibition of human tumor cells, LoVo, SRB method; format: cell-based
Description: as §1
(§5) Trichloroacetic acid was removed. […] Excess SRB was removed.
as §4

[5] = test system: Fadu; test: In vitro inhibition of human tumor cells, Fadu, MTT method; format: cell-based
[6] = test system: human colon cancer LoVo; details: 30 mg/kg i.v. qw × 2; LoVo model
Procedure: An allogeneic transplantation model of human colon cancer LoVo was established in nude mice subcutaneously using a tumor block inoculation method. When the tumor volume of the allogeneic transplantation was about 100 to 300 mm^3 and kept stable, the experimental animals were randomly divided into groups according to the tumor volume (day 0) by using a remainder method. The tumor volume was measured 2 to 3 times a week. At the end of the dosage period, the experimental animals were sacrificed. The subcutaneous tumors were peeled and weighed. The anti-tumor activity of the drug against the model was evaluated based on tumor volume and tumor weight-related data.
(§12) The calculation formula of the tumor volume was: Volume=0.5×long diameter×short diameter×short diameter.
V0 was the resulting tumor volume measured at the time of dosing in groups (i.e., d0) and Vt is the tumor volume at each measurement.
(§13) T was the subject and C was the model control.
TRTV was the average RTV of the subject and CRTV was the average RTV of the model control group.
(§14) Wn: average body weight of each group of experimental animals on day n, and W0: average body weight of each group of experimental animals on day 0.

[7] = test system: A375; test: In vitro inhibition of human tumor cells, A375, SRB method
Procedure: as §6, §7, §8, §9, §10, §11

[8] = test system: human colon cancer SW620; details: 30 mg/kg i.v. qw × 2; SW620 model
Procedure: An allogeneic transplantation model of human colon cancer SW620 was established in nude mice subcutaneously using a tumor block inoculation method. When the tumor volume of the allogeneic transplantation was about 100 to 300 mm^3 and remained stable, the experimental animals were randomly divided into groups according to the size of the tumor volume (day 0) by using a remainder method. The tumor volume was measured 2 to 3 times a week. At the end of the dosage period, the experimental animals were sacrificed. The subcutaneous tumors were peeled and weighed. The anti-tumor activity of the drug against the model was evaluated based on tumor volume and tumor weight-related data.
as §12
(§15) V0 was the resulting tumor volume measured at the time of dosing in groups (i.e., d0) and Vt was the tumor volume at each measurement.
(§16) T was the subject and C is the model control.
TRTV was the average value of RTV of the subject, and CRTV was the average RTV of the model control group.
as §14

[9] = test system: 22RV1; test: In vitro inhibition of human tumor cells, 22RV1, SRB method
Procedure: as §6, §7, §8, §9, §10, §11

[10] = test system: BxPC-3; test: In vitro inhibition of human tumor cells, BxPC-3, MTT method; format: cell-based
Procedure: as §1, §2, §3, §4

[11] = test system: HCT116; test: In vitro inhibition of human tumor cells, HCT116, MTT method; format: cell-based
Procedure: as §1, §2, §3, §4

[12] = test system: SW620; test: In vitro inhibition of human tumor cells, SW620, SRB method; format: cell-based
Description: as §1, §5, §4

[13] = test system: NCI-N87; test: In vitro inhibition of human tumor cells, NCI-N87, MTT method; format: cell-based
[14] = test system: human small cell lung cancer NCI-H446; details: 20 mg/kg i.v. qw × 2; NCI-H446 model
Procedure: An allogeneic transplantation model of human small cell lung cancer NCI-H446 was established in nude mice subcutaneously using a tumor block inoculation method. When the tumor volume of the allogeneic transplantation was about 100 to 300 mm^3 and remained stable, the experimental animals were randomly divided into groups according to the size of the tumor volume (day 0, i.e., d0) using a remainder method. The tumor volume was measured 2 to 3 times a week. At the end of the dosage period, the experimental animals were sacrificed. The subcutaneous tumors were peeled and weighed. The anti-tumor activity of the drug against the model was evaluated based on tumor volume and tumor weight-related data.
as §12, §15, §13
(§17) TRTV was the average RTV of the subject, and CRTV was the average RTV of the model control group.
as §14

[15] = test system: human colon cancer HCT116; test: Growth of human colon cancer HCT116 in allogeneic transplantation model; format: in vivo, nude mice; details: 10 mg/kg i.v. qw × 2
Procedure: (§18) When the tumor volume of the allogeneic transplantation was about 100 to 300 mm^3 and remained stable, the experimental animals were randomly divided into groups according to the size of the tumor volume (day 0) by using a remainder method. The tumor volume was measured 2 to 3 times a week. At the end of the dosage period, the experimental animals were sacrificed. The subcutaneous tumors were peeled and weighed. The anti-tumor activity of the drug against the model was evaluated based on tumor volume and tumor weight-related data.
as §12, §15, §16, §17, §14

[16] = test system: human pancreatic cancer BxPC-3; test: Growth of human pancreatic cancer BxPC-3 in allogeneic transplantation model; format: in vivo, nude mice; details: 25 mg/kg i.v. qw × 2, BxPC-3 model
Procedure: as §18, §12, §15, §13, §17, §14
(§19) In the large tumor efficacy test after the second grouping of the G5 group, since the number of samples in each group of G6.1 and G6.4 was less than three, the relevant data of the large tumor efficacy test were statistically analyzed among groups using the T-Test method.

[17] = test system: human pancreatic cancer BxPC-3; details: 30 mg/kg i.v. qw × 2
Procedure: as §18, §12, §15, §13, §17, §14, §19

[18] = test system: human gastric cancer NCI-N87; test: Growth of human gastric cancer NCI-N87 in allogeneic transplantation model; format: in vivo, nude mice
Procedure: The tumor volume was measured 2 to 3 times per week. […] The subcutaneous tumors were peeled and weighed.
The calculation formula of the tumor volume: Volume=0.5×long diameter×short diameter×short diameter.

[19] = No βGU (direct effects of compound on cells)
[20] = BxPC-3 large tumors after irinotecan

Substance	pIC50 ([1]; Adding βGU)	pIC50 ([1]; No βGU)	pIC50 ([2]; Adding βGU)	pIC50 ([2]; No βGU)	pIC50 ([3]; Adding βGU)	pIC50 ([3]; No βGU)	pIC50 ([4]; Adding βGU)	pIC50 ([4]; No βGU)	pIC50 ([5]; Adding βGU)	pIC50 ([5]; No βGU)	pIC50 ([7]; Adding βGU)	pIC50 ([7]; No βGU)	pIC50 ([9]; Adding βGU)	pIC50 ([9]; No βGU)	pIC50 ([10]; Adding βGU)	pIC50 ([10]; No βGU)	pIC50 ([11]; Adding βGU (β-glucuronidase))	pIC50 [11, 19]	pIC50 ([12]; Adding βGU)	pIC50 ([12]; No βGU)	also measured
4-amino-6-((E)-(4′-(6-(4-((2-(((S)-4,11-diethyl-4-hydroxy-3,14-dioxy-3,4,12,14-tetrahydro-1H-pyrano[3′,4′:6,7]indolazo[1,2-b]quinolin-9-yl)oxy)methyl)-5-(((2S,3R,4S,5 S,6S)-3,4,5-trihydroxy-6-(methoxycarbonyl)tetrahydro-2H-pyran-2-yl)oxy)phenoxy)methyl)-1H-1,2,3-triazol-1-yl)hexanamido)-3,3′-dimethyl-[1,1′-biphenyl]-4-yl)diazenyl)-5-hydroxynaphthalene-1,3-disulfonate disodium [Example 21]	7.10	6.11	7.55	6.36	7.38	6.75	7.35	6.14	8.01	6.53	8.06	6.25	7.84	6.40	7.21	6.16	7.46	6.61	7.64	6.12	T/C (%) [6]: 9.8%; Tumor inhibition rate (%) [6]: 93.1%; T/C (%) [8]: 0.5%; Tumor inhibition rate (%) [8]: 99.8%
(2S,3S,4S,5R,6S)-6-(3-((1-(2-(2-(2-((4′-((E)-(8-amino-1-hydroxy-5,7-disulfononaphthalen-2-yl)diazenyl)-3,3′-dimethoxy-[1,1′-biphenyl]-4-yl)amino)-2-oxoethoxy)ethoxy)ethyl)-1H-1,2,3-triazol-4-yl)methoxy)-4-(((S)-4,11-diethyl-4-hydroxy-3,14-dioxo-3,4,12,14-tetrahydro-1H-pyrano[3′,4′:6,7]indolazino[1,2-b]quinolin-9-yl)oxy)methyl)phenoxy)-3,4,5-trihydroxytetrahydro-2H-pyran-2-carboxylate trisodium [Example 61]	8.07	6.29	7.40	6.25	8.19	6.67	8.23	6.61	7.82	6.30	7.90	6.11	8.08	6.65	8.15	6.04	8.27	6.66	8.59	6.55	pIC50 ([13]; Adding βGU): 7.48; pIC50 ([13]; No βGU): 6.40; Relative volume RTV (X ± S.D.) [14]: 0.25 ± 0.25; T/C (%) [14]: 3.7%; Tumor inhibition rate (%) [14]: 96.0%; Tumor weight (g, X ± S.D.) [14]: 0.039 ± 0.049 g; T/C (%) [15]: 27.2%; Tumor inhibition rate (%) [15]: 76.8%
(2S,3S,4S,5R,6S)-6-(3-((1-(5-((4′-((E)-(8-amino-1-hydroxy-5,7-disulfonicnaphthalen-2-yl)diazenyl)-3,3′-dimethyl-[1,1′-biphenyl]-4-yl)amino)-5-oxopentyl)-1H-1,2,3-triazol-4-yl)methoxy)-4-((((S)-4,11-diethyl-4-hydroxy-3,14-dioxy-3,4,12,14-tetrahydro-1H-pyrano[3′,4′:6,7]indolazino[1,2-b]quinolin-9-yl)oxy)methyl)phenoxy)-3,4,5-trihydroxytetrahydro-2H-pyran-2-carboxylate trisodium [Example 85]	–	–	7.30	6.14	8.01	7.15	–	–	7.82	6.15	7.72	6.06	8.05	6.61	–	–	–	–	–	–	Relative volume RTV (X ± S.D.) [16]: 0.23 ± 0.05; T/C (%) [16]: 4.8%; Tumor inhibition rate (%) [16]: 97.2%; Tumor weight (g, X ± S.D.) [16]: 0.047 ± 0.027 g; Final body weight change (%) ([16]; nude mouse): 4.0%; Relative volume RTV (X ± S.D.) [17, 20]: 0.48 ± 0.11; T/C (%) [17, 20]: 13.7%; Tumor inhibition rate (%) [17, 20]: 90.0%; Tumor weight (g, X ± S.D.) [17, 20]: 0.301 ± 0.051 g; Final body weight change (%) ([17]; BxPC-3 tumors more than 600 mm^3 after irinotecan 100 mg/kg i.p. qw × 2): 0.4%; pIC50 ([13]; Adding βGU): 7.51; pIC50 ([13]; No βGU): 6.75; Relative volume RTV (X ± S.D.) ([18]; 20 mg/kg i.v. qw × 2): 0.67 ± 0.24; T/C (%) ([18]; 20 mg/kg i.v. qw × 2): 13.0%; Tumor inhibition rate (%) ([18]; 20 mg/kg i.v. qw × 2): 93.6%; Tumor weight (g, X ± S.D.) ([18]; 20 mg/kg i.v. qw × 2): 0.076 ± 0.014 g; Final body weight change (%) ([18]; 20 mg/kg i.v. qw × 2, nude mouse): 10.0%
(2S,3S,4S,5R,6S)-6-(3-((1-(6-((4′-((E)-(8-amino-1-hydroxy-5,7-disulfonicnaphthalen-2-yl)diazenyl)-[1,1′-biphenyl]-4-yl)amino)-6-oxohexyl)-1H-1,2,3-triazol-4-yl)methoxy)-4-((((S)-4,11-diethyl-4-hydroxy-3,14-dioxo-3,4,12,14-tetrahydro-1H-pyrano[3′,4′:6,7]indolazino[1,2-b]quinolin-9-yl)oxy)methyl)phenoxy)-3,4,5-trihydroxytetrahydro-2H-pyran-2-carboxylate trisodium [Example 78]	8.02	6.28	7.46	6.34	8.48	7.55	7.96	6.52	8.16	6.46	7.66	6.01	8.12	6.57	7.89	6.21	8.62	7.38	8.14	6.48	pIC50 ([13]; Adding βGU): 7.59; pIC50 ([13]; No βGU): 6.77; T/C (%) [6]: 15.8%; Tumor inhibition rate (%) [6]: 88.2%; T/C (%) [8]: 0.6%; Tumor inhibition rate (%) [8]: 99.4%
